Experimental data as given in US10696615B2, “Prenylated hydroxystilbenes” (The University of Sydney, priority 2011, dated 2020).

Key:
Format in all cases: cell-based, human
[1] = tested on: CCRF-CEM; assay: NCI in vitro cancer screen, Leukemia
[2] = tested on: K-562; assay: NCI in vitro cancer screen, Leukemia; conditions: K-562
[3] = tested on: A549/ATCC; assay: NCI in vitro cancer screen, Non-Small Cell Lung Cancer
[4] = tested on: EKVX; assay: as above
[5] = tested on: NCI-H226; assay: as above; conditions: NCI-H226
[6] = tested on: NCI-H322M; assay: as above
[7] = tested on: NCI-H522; assay: as above; conditions: NCI-H522
[8] = tested on: HCC-2998; assay: NCI in vitro cancer screen, Colon Cancer; conditions: HCC-2998
[9] = tested on: HCT-116; assay: NCI in vitro cancer screen, Colon Cancer; conditions: HCT-116
[10] = tested on: SW-620; assay: NCI in vitro cancer screen, Colon Cancer; conditions: SW-620
[11] = tested on: SF-295; assay: NCI in vitro cancer screen, CNS Cancer; conditions: SF-295
[12] = tested on: SNB-19; assay: NCI in vitro cancer screen, CNS Cancer; conditions: SNB-19
[13] = tested on: SNB-75; assay: NCI in vitro cancer screen, CNS Cancer; conditions: SNB-75
[14] = tested on: M14; assay: NCI in vitro cancer screen, Melanoma; conditions: M14
[15] = tested on: MDA-MB-435; assay: NCI in vitro cancer screen, Melanoma; conditions: MDA-MB-435
[16] = tested on: SK-MEL-28; assay: NCI in vitro cancer screen, Melanoma; conditions: SK-MEL-28
[17] = tested on: SK-MEL-5; assay: NCI in vitro cancer screen, Melanoma; conditions: SK-MEL-5
[18] = tested on: UACC-257; assay: NCI in vitro cancer screen, Melanoma; conditions: UACC-257
[19] = tested on: IGROV1; assay: NCI in vitro cancer screen, Ovarian Cancer; conditions: IGROV1
[20] = tested on: OVCAR-3; assay: NCI in vitro cancer screen, Ovarian Cancer; conditions: OVCAR-3
[21] = tested on: OVCAR-8; assay: NCI in vitro cancer screen, Ovarian Cancer; conditions: OVCAR-8
[22] = tested on: SK-OV-3; assay: NCI in vitro cancer screen, Ovarian Cancer; conditions: SK-OV-3
[23] = tested on: 786-0; assay: NCI in vitro cancer screen, Renal Cancer; conditions: 786-0
[24] = tested on: ACHN; assay: NCI in vitro cancer screen, Renal Cancer
[25] = tested on: RXF-393; assay: NCI in vitro cancer screen, Renal Cancer; conditions: RXF-393
[26] = tested on: DU-145; assay: NCI in vitro cancer screen, Prostate Cancer; conditions: DU-145
[27] = tested on: MCF7; assay: NCI in vitro cancer screen, Breast Cancer; conditions: MCF7
[28] = tested on: MDA-MB-231 (MDA-MB-231/ATCC); assay: NCI in vitro cancer screen, Breast Cancer; conditions: MDA-MB-231
[29] = tested on: HS 578T; assay: NCI in vitro cancer screen, Breast Cancer
[30] = tested on: MDA-MB-468; assay: NCI in vitro cancer screen, Breast Cancer; conditions: MDA-MB-468
[31] = Homo sapiens, read-out: LC50 (the source's name)

Compound: CC(C)=CCc1c(O)cc(/C=C/c2ccc(O)cc2)c(CC=C(C)C)c1O [USYDS6, (E)-2,4-di(3-methyl-2-buten-1-yl)-3,4′,5-trihydroxystilbene]
- TGI [1]: 9.17 µM
- GI50 ([1]; Homo sapiens): 2.96 µM
- CC50 [1, 31]: 82.1 µM
- GI50 ([2]; Homo sapiens, K562): 1.46 µM
- CC50 ([2]; Homo sapiens, K562, read-out: LC50 (the source's name)): 22.6 µM
- TGI [2]: 4.13 µM
- TGI [3]: 8.42 µM
- GI50 ([3]; Homo sapiens): 2.69 µM
- CC50 [3, 31]: 33.7 µM
- TGI [4]: 21.4 µM
- GI50 ([4]; Homo sapiens): 7.19 µM
- CC50 [4, 31]: 54.4 µM
- GI50 ([5]; Homo sapiens): 1.47 µM
- TGI [5]: 30.1 µM
- TGI [6]: 25.5 µM
- GI50 ([6]; Homo sapiens): 1.16 µM
- GI50 ([7]; Homo sapiens): 2.18 µM
- CC50 [7, 31]: 17.8 µM
- TGI [7]: 5.15 µM
- TGI [8]: 8.78 µM
- GI50 ([8]; Homo sapiens): 2.81 µM
- CC50 [8, 31]: 32.2 µM
- TGI [9]: 3.78 µM
- GI50 ([9]; Homo sapiens): 1.89 µM
- GI50 ([10]; Homo sapiens): 1.84 µM
- CC50 [10, 31]: 6.82 µM
- TGI [10]: 3.54 µM
- GI50 ([11]; Homo sapiens): 6.78 µM
- CC50 [11, 31]: 53.2 µM
- TGI [11]: 20.8 µM
- GI50 ([12]; Homo sapiens): 6.38 µM
- CC50 [12, 31]: 52.7 µM
- TGI [12]: 20.6 µM
- GI50 ([13]; Homo sapiens): 6.67 µM
- CC50 [13, 31]: 54 µM
- TGI [13]: 21.4 µM
- GI50 ([14]; Homo sapiens): 2.82 µM
- CC50 [14, 31]: 33.4 µM
- TGI [14]: 8.46 µM
- GI50 ([15]; Homo sapiens): 3.37 µM
- CC50 [15, 31]: 42.1 µM
- TGI [15]: 10.8 µM
- GI50 ([16]; Homo sapiens): 11.2 µM
- TGI [16]: 24.0 µM
- GI50 ([17]; Homo sapiens): 2.29 µM
- CC50 [17, 31]: 22.1 µM
- TGI [17]: 6.17 µM
- GI50 ([18]; Homo sapiens): 3.49 µM
- CC50 [18, 31]: 39.8 µM
- TGI [18]: 14.4 µM
- GI50 ([19]; Homo sapiens, IGROV-1): 5.23 µM
- CC50 ([19]; Homo sapiens, IGROV-1, read-out: LC50 (the source's name)): 54.1 µM
- TGI [19]: 17.7 µM
- GI50 ([20]; Homo sapiens): 2.1 µM
- CC50 [20, 31]: 8.85 µM
- TGI [20]: 4.31 µM
- GI50 ([21]; Homo sapiens): 2.95 µM
- CC50 [21, 31]: 42.9 µM
- TGI [21]: 9.51 µM
- GI50 ([22]; Homo sapiens): 13.9 µM
- CC50 [22, 31]: 53.2 µM
- TGI [22]: 27.1 µM
- TGI [23]: 6.96 µM
- GI50 ([23]; Homo sapiens): 2.46 µM
- TGI [24]: 14.6 µM
- GI50 ([24]; Homo sapiens): 3.94 µM
- CC50 [24, 31]: 50.4 µM
- GI50 ([25]; Homo sapiens): 2.15 µM
- CC50 [25, 31]: 18.7 µM
- TGI [25]: 5.39 µM
- TGI [26]: 12.9 µM
- GI50 ([26]; Homo sapiens): 3.47 µM
- CC50 [26, 31]: 40.1 µM
- GI50 ([27]; Homo sapiens): 4.02 µM
- CC50 [27, 31]: 60.5 µM
- TGI [27]: 18.0 µM
- GI50 ([28]; Homo sapiens): 1.72 µM
- CC50 [28, 31]: 17.2 µM
- TGI [28]: 4.54 µM
- TGI [29]: 5.29 µM
- GI50 ([29]; Homo sapiens): 1.67 µM
- CC50 [29, 31]: 35.8 µM
- GI50 ([30]; Homo sapiens): 2.3 µM
- CC50 [30, 31]: 26 µM
- TGI [30]: 6.39 µM
